# Biological target: T1, porcine gastric H^+/K^+-ATPase (Sus scrofa, UniProt P19156)
# T1 construct: prepared from mucous membrane in fresh porcine stomachs by homogenization; from tissue; host or cells: mucous membrane of fresh porcine stomachs (gastric vesicles, Ficoll/sucrose gradient)
# Assay: Ion-tight porcine gastric H+/K+-ATPase inhibition
# Assay type: biochemical
# Conditions: ion-tight porcine gastric vesicles, 150 mM KCl, valinomycin, pH 7.4, 37° C., 30 minutes
# Description: The porcine gastric vesicles for Porcine gastric H^+/K^+-ATPase inhibition assays were prepared from mucous membrane in fresh porcine stomachs by homogenization with a tight-fitted polytetrafluoroethylene (Teflone®) homogenizer in 0.25 M sucrose at 4° C. The crude pellet was removed with centrifugation at 20,000 g for 30 min. Then supernatant was centrifuged at 100,000 g for 30 min. The resulting pellet was re-suspended in 0.25 M sucrose, and then subjected to density gradient centrifugation at 132,000 g for 90 min. The gastric vesicles were collected from interface on 0.25 M sucrose layer containing 7% Ficoll™ PM400(Amersham Biosciences). This procedure was performed in a cold room.
# Ion-tight porcine gastric H^+/K^+-ATPase inhibition was measured according to the modified method described in Biochemical Pharmacology, 1988, 37, 2231-2236.
# The isolated vesicles were kept in deep-freezer until use. For enzyme assay, vesicles were diluted with 3 mM MgSO4 containing 5 mM Tris (pH 7.4 at 37° C.).
# Enzyme reaction was performed incubating 150 mM KCl, 3 mM Na2ATP, 3 mM MgSO4 15 μM valinomycin and 3.0 μg of vesicles for 30 minutes at 37° C. in a final 60 μl of reaction mixture (5 mM Tris, pH 7.4) with or without the test compound. Enzyme reaction was stopped by adding 10% SDS. Released inorganic phosphate from ATP was detected by incubating with mixture of 1 part of 35 mM ammonium molybdate tetrahydrate in 15 mM Zinc acetate hydrate and 4 parts of 10% ascorbic acid (pH 5.0), resulting in phosphomolybdate, which has optical density at 750 nm.
# T1 sequence (P19156 2-1034 limits assumed): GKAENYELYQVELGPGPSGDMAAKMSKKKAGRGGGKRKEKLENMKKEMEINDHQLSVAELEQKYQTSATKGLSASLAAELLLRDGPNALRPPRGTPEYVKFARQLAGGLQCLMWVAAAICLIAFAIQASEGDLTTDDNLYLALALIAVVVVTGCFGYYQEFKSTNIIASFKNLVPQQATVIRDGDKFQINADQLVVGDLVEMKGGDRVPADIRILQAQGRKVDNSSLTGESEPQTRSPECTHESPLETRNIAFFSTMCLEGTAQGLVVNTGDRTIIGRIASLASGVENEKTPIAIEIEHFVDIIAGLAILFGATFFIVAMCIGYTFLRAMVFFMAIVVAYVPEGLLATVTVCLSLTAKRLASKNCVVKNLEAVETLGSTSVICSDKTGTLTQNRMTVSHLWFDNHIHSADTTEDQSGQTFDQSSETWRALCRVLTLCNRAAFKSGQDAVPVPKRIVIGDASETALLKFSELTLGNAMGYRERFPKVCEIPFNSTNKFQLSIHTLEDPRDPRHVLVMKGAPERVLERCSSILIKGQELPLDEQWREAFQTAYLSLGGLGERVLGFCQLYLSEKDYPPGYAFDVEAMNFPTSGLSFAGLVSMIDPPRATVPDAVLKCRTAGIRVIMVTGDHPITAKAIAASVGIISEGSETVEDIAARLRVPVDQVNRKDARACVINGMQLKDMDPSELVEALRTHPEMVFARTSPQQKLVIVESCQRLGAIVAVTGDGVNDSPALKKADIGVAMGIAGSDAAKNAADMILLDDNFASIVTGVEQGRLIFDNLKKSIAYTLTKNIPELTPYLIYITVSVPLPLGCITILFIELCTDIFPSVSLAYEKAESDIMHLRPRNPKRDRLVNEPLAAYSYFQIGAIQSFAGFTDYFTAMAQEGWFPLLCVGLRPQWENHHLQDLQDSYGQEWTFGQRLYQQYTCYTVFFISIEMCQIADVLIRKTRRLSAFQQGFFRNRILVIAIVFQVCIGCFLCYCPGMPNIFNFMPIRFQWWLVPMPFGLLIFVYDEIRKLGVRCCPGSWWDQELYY
# T1 sequence (P18434 whole entry partner): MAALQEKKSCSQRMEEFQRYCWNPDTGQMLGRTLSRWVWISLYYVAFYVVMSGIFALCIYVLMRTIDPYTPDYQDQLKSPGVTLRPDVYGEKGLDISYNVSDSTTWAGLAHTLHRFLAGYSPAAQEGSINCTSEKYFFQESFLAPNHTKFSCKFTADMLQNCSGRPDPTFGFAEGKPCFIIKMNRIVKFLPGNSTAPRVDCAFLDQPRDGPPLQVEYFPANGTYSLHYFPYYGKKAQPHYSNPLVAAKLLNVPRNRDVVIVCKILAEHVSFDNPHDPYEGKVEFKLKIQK
row,Compound,IC50
1,"Cc1nc2c(OC3CCOc4cc(F)cc(F)c43)cc(C(=O)N(C)C)cc2[nH]1 (racemic) [Example 1, 4-[(5,7-Difluoro-3,4-dihydro-2H-chromen-4-yl)oxy]-N,N,2-trimethyl-1H-benzimidazole-6-carboxamide]",0.19 µM
2,"Cc1nc2c(OC3CCOc4cccc(C)c43)cc(C(=O)N(C)C)cc2[nH]1 (single isomer, unassigned; (+)) [Example 18, (+)-N,N,2-Trimethyl-4-[(5-methyl-3,4-dihydro-2H-chromen-4-yl)oxy]-1H-benzimidazole-6-carboxamide]",0.13 µM
3,"Cc1nc2c(OC3CCOc4cccc(F)c43)cc(C(=O)N(C)C)cc2[nH]1 (single isomer, unassigned; (-)) [Example 10, (−)-4-[(5-Fluoro-3,4-dihydro-2H-chromen-4-yl)oxy]-N,N,2-trimethyl-1H-benzimidazole-6-carboxamide]",0.14 µM
4,"Cc1nc2c(OC3CCOc4cc(F)cc(F)c43)cc(C(=O)N3CCC3)cc2[nH]1 (single isomer, unassigned; (-)) [Example 22, (−)-6-(Azetidin-1-ylcarbonyl)-4-[(5,7-difluoro-3,4-dihydro-2H-chromen-4-yl)oxy]-2-methyl-1H-benzimidazole]",0.57 µM
5,"Cc1nc2c(OC3CCOc4cc(F)cc(F)c43)cc(C(=O)N(C)CCO)cc2[nH]1 (centres unmarked) [Example 7, 4-[(5,7-Difluoro-3,4-dihydro-2H-chromen-4-yl)oxy]-N-(2-hydroxyethyl)-N,2-dimethyl-1H-benzimidazole-6-carboxamide]",1.1 µM
6,"Cc1nc2c(OC3CCOc4cc(F)cc(F)c43)cc(C(=O)N(C)CCN(C)C)cc2[nH]1 (centres unmarked) [Example 8, 4-[(5,7-Difluoro-3,4-dihydro-2H-chromen-4-yl)oxy]-N-[2-(dimethylamino)ethyl]-N,2-dimethyl-1H-benzimidazole-6-carboxamide]",0.61 µM
7,"Cc1nc2c(OC3CCOc4ccccc43)cc(C(=O)N(C)C)cc2[nH]1 (centres unmarked) [Example 12, 4-(3,4-Dihydro-2H-chromen-4-yloxy)-N,N,2-tri methyl-1H-benzimidazole-6-carboxamide]",0.23 µM
8,"Cc1nc2c(OC3CCOc4c(F)ccc(C)c43)cc(C(=O)N(C)C)cc2[nH]1 (centres unmarked) [Example 13, 4-[(8-Fluoro-5-methyl-3,4-dihydro-2H-chromen-4-yl)oxy]-N,N,2-trimethyl-1H-benzimidazole-6-carboxamide]",0.13 µM
9,"Cc1nc2c(OC3CCOc4c(F)ccc(F)c43)cc(C(=O)N(C)C)cc2[nH]1 (centres unmarked) [Example 14, 4-[(5,8-Difluoro-3,4-dihydro-2H-chromen-4-yl)oxy]-N,N,2-trimethyl-1H-benzimidazole-6-carboxamide]",0.22 µM
10,"CCc1nc2c(OC3CCOc4cc(F)cc(F)c43)cc(C(=O)N(C)C)cc2[nH]1 (centres unmarked) [Example 15, 4-[(5,7-Difluoro-3,4-dihydro-2H-chromen-4-yl)oxy]-2-ethyl-N,N-dimethyl-1H-benzimidazole-6-carboxamide]",0.21 µM
11,"CNC(=O)c1cc(OC2CCOc3cccc(C)c32)c2nc(C)[nH]c2c1 (centres unmarked) [Example 19, N,2-Dimethyl-4-[(5-methyl-3,4-dihydro-2H-chromen-4-yl)oxy]-1H-benzimidazole-6-carboxamide]",0.24 µM
12,"Cc1nc2c(O[C@H]3CCOc4cc(F)cc(F)c43)cc(C(=O)N3CCOCC3)cc2[nH]1 [Example 24, (−)-4-[(5,7-Difluoro-3,4-dihydro-2H-chromen-4-yl)oxy]-2-methyl-6-(morpholin-4-ylcarbonyl)-1H-benzimidazole]",0.37 µM
13,"Cc1nc2c(OC3CCSc4ccccc43)cc(C(=O)N(C)C)cc2[nH]1 (centres unmarked) [Example 25, 4-(3,4-Dihydro-2H-thiochromen-4-yloxy)-N,N,2-trimethyl-1H-benzimidazole-6-carboxamide]",0.16 µM

# More lines, in order of falling IC50, values ahead:
row,IC50,Compound
1,0.13 µM,"Cc1nc2c(OC3CCOc4cccc(F)c43)cc(C(=O)N(C)C)cc2[nH]1 (racemic) [Example 9, 4-[(5-Fluoro-3,4-dihydro-2H-chromen-4-yl)oxy]-N,N,2-trimethyl-1H-benzimidazole-6-carboxamide]"
2,0.12 µM,"Cc1nc2c(OC3CCOc4cccc(F)c43)cc(C(=O)N(C)C)cc2[nH]1 (single isomer, unassigned; (+)) [Example 11, (+)-4-[(5-Fluoro-3,4-dihydro-2H-chromen-4-yl)oxy]-N,N,2-trimethyl-1H-benzimidazole-6-carboxamide]"
3,0.11 µM,"CCN(C)C(=O)c1cc(O[C@H]2CCOc3cc(F)cc(F)c32)c2nc(C)[nH]c2c1 [Example 23, (−)-4-[(5,7-Difluoro-3,4-dihydro-2H-chromen-4-yl)oxy]-N-ethyl-N,2-dimethyl-1H-benzimidazole-6-carboxamide]"
4,0.099 µM,"Cc1nc2c(OC3CCOc4cccc(C)c43)cc(C(=O)N(C)C)cc2[nH]1 (single isomer, unassigned; (-)) [Example 17, (−)-N,N,2-Trimethyl-4-[(5-methyl-3,4-dihydro-2H-chromen-4-yl)oxy]-1H-benzimidazole-6-carboxamide]"
5,0.098 µM,"Cc1nc2c(O[C@@H]3CCOc4cc(F)cc(F)c43)cc(C(=O)N(C)C)cc2[nH]1 (single isomer, unassigned) [Example 3]"
6,0.086 µM,"Cc1nc2c(O[C@H]3CCOc4cc(F)cc(F)c43)cc(C(=O)N(C)C)cc2[nH]1 (single isomer, unassigned) [Example 2]"
7,0.082 µM,"Cc1nc2c(OC3CCOc4cc(F)cc(C)c43)cc(C(=O)N(C)C)cc2[nH]1 (centres unmarked) [Example 21, 4-[(7-Fluoro-5-methyl-3,4-dihydro-2H-chromen-4-yl)oxy]-N,N,2-trimethyl-1H-benzimidazole-6-carboxamide]"
8,0.071 µM,"Cc1nc2c(OC3CCOc4cccc(C)c43)cc(C(=O)N3CCCC3)cc2[nH]1 (centres unmarked) [Example 20, 2-Methyl-4-[(5-methyl-3,4-dihydro-2H-chromen-4-yl)oxy]-6-(pyrrolidin-1-ylcarbonyl)-1H-benzimidazole]"
9,0.068 µM,"Cc1nc2c(OC3CCOc4cccc(C)c43)cc(C(=O)N(C)C)cc2[nH]1 (centres unmarked) [Example 16, N,N,2-Trimethyl-4-[(5-methyl-3,4-dihydro-2H-chromen-4-yl)oxy]-1H-benzimidazole-6-carboxamide]"
10,0.058 µM,"Cc1nc2c(OC3CCOc4cc(F)cc(F)c43)cc(C(=O)N3CCCC3)cc2[nH]1 (racemic) [Example 4, 4-[(5,7-Difluoro-3,4-dihydro-2H-chromen-4-yl)oxy]-2-methyl-6-(pyrrolidin-1-ylcarbonyl)-1H-benzimidazole]"
11,0.032 µM,"Cc1nc2c(OC3CCOc4cc(F)cc(F)c43)cc(C(=O)N3CCCC3)cc2[nH]1 (single isomer, unassigned; (+)) [Example 5, (+)-4-[(5,7-Difluoro-3,4-dihydro-2H-chromen-4-yl)oxy]-2-methyl-6-(pyrrolidin-1-ylcarbonyl)-1H-benzimidazole]"
12,0.03 µM,"Cc1nc2c(OC3CCOc4cc(F)cc(F)c43)cc(C(=O)N3CCCC3)cc2[nH]1 (single isomer, unassigned; (-)) [Example 6, (−)-4-[(5,7-Difluoro-3,4-dihydro-2H-chromen-4-yl)oxy]-2-methyl-6-(pyrrolidin-1-ylcarbonyl)-1H-benzimidazole]"

# Tested on: gastric acid secretion
# Assay: Inhibition of gastric acid secretion in the Heidenhain pouch dog
# Assay type: in vivo, Beagle dogs
# Conditions: histamine-stimulated acid secretion, maximum inhibition relative to control
# Description: Male Beagle dogs weighing 7-15 kg with Heidenhain pouch [Heidenhain R: Arch Ges Physiol. 1879, 19: 148-167] were used. The animals were allowed to recover from surgery for at least three weeks before the experiments. The animals were kept at a 12 hour light-dark rhythm, housed singly. They received standard food once daily at 11:00 a.m. and tap water ad libitum, and were fasted overnight prior to the experiment, with free access to water. Gastric juice samples were collected throughout the experiment by gravity drainage every 15 min. Acidity in the gastric juice was measured by titration to the end point of pH 7.0. Acid secretion was stimulated by a continuous intravenous infusion of histamine (80 μg/kg/h). Oral or intravenous bolus administration of the test compounds was done 90 minutes after commencement of the histamine infusion. The acid secretion was monitored after the administration. The activity was evaluated by the maximum inhibition relative to the corresponding control value.
row,Compound,inhibitory activity (gastric acid secretion)
1,"Cc1nc2c(O[C@H]3CCOc4cc(F)cc(F)c43)cc(C(=O)N(C)C)cc2[nH]1 (single isomer, unassigned) [Example 2]",good inhibitory activity
